# Experimental data reported in ChEMBL document CHEMBL4118081, “Design, synthesis, and biological evaluation of optimized phthalazine derivatives as hedgehog signaling pathway inhibitors” (Eur J Med Chem, 2017).
# Activity calls are given as the source filed them. No cut-off for these calls is given here.
# Assays:
# [1] = Inhibition of hedgehog signaling pathway in mouse NIH/3T3 Light2 cells by Gli-luciferase reporter gene assay; assay type: cell-based; details: NIH3T3
# Medulloblastoma cell [2] = assay: Antiproliferative activity against Ptch+/- and p53-/- mouse medulloblastoma cells after 36 hrs by Brdu incorporation assay; assay type: functional, cell-based
# Medulloblastoma cell [3] = assay: Antitumor activity against Ptch+/- and p53-/- mouse medulloblastoma cells allografted in athymic nude mouse assessed as tumor growth inhibition at 50 mg/kg, po bid administered daily via gavage for 13 days; assay type: functional, organism-based
# Mus musculus = species on record: Mus musculus; assay: Potency index, ratio of vismodegib IC50 to compound IC50 for hedgehog signaling pathway in mouse NIH/3T3 Light2 cells; assay type: cell-based
# Medulloblastoma cell [4] = assay: Antitumor activity against Ptch+/- and p53-/- mouse medulloblastoma cells allografted in athymic nude mouse assessed as tumor growth inhibition at 100 mg/kg, po qd administered daily via gavage for 13 days; assay type: functional, organism-based
# [5] = AUC (0 to infinity) in Sprague-Dawley rat at 2 mg/kg, iv administered as single dose; assay type: ADME, organism-based; design: dose 2 mg/kg, time infinity, route intravenous; details: in vivo
# [6] = Clearance in Sprague-Dawley rat at 2 mg/kg, iv administered as single dose; assay type: ADME, organism-based; details: in vivo
# [7] = Volume of distribution at steady state in Sprague-Dawley rat at 2 mg/kg, iv administered as single dose; assay type: ADME, organism-based; details: in vivo, read-out: Vdss
# [8] = Half life in Sprague-Dawley rat at 2 mg/kg, iv administered as single dose; assay type: ADME, organism-based; details: in vivo
# [9] = AUC (0 to infinity) in Sprague-Dawley rat at 10 mg/kg, po administered as single dose; assay type: ADME, organism-based; design: dose 10 mg/kg, time infinity, route oral; details: in vivo
# [10] = Cmax in Sprague-Dawley rat at 10 mg/kg, po administered as single dose; assay type: ADME, organism-based; design: dose 10 mg/kg, route oral; details: in vivo
# [11] = Tmax in Sprague-Dawley rat at 10 mg/kg, po administered as single dose; assay type: ADME, organism-based; details: in vivo
# [12] = Oral bioavailability in Sprague-Dawley rat at 10 mg/kg administered as single dose; assay type: ADME, organism-based; details: in vivo
SMILES,IC50 [1] [nM],also measured
O=C(NC1CCN(c2nnc(NCc3ccccc3)c3ccccc23)C1)c1ccc(F)cc1C(F)(F)F (racemic),> 100,
Cc1ccc(-c2nnc(N3CC[C@@H](NC(=O)c4ccc(F)cc4C(F)(F)F)C3)c3ccccc23)cc1,1.16,IC50 (Medulloblastoma cell [2]): 20.1 nM
Cn1nccc1-c1nnc(NC2CCN(C(=O)c3ccc(F)cc3C(F)(F)F)C2)c2ccccc12 (racemic),> 1000,
N#Cc1ccc(-c2nnc(N3CCC(NC(=O)c4ccc(F)cc4C(F)(F)F)C3)c3ccccc23)cc1 (racemic),14,
O=C(NC1CCN(c2nnc(-c3ccc(Cl)cc3)c3ccccc23)C1)c1ccc(F)cc1C(F)(F)F (racemic),10.9,
CS(=O)(=O)c1ccc(C(=O)Nc2ccc(Cl)c(-c3ccccn3)c2)c(Cl)c1 [VISMODEGIB],2.3,IC50 (Medulloblastoma cell [2]): 30.4 nM
CC(=O)c1ccc(-c2nnc(N3CCC(NC(=O)c4ccc(F)cc4C(F)(F)F)C3)c3ccccc23)cc1 (racemic),8.6,
CN(C(=O)c1ccc(F)cc1C(F)(F)F)C1CCN(c2nnc(-c3ccnn3C)c3ccccc23)CC1 [TALADEGIB],6.3,IC50 (Medulloblastoma cell [2]): 43.5 nM; TGI (Medulloblastoma cell [3]): Active
O=C(NC1CCN(c2nnc(-c3ccncc3)c3ccccc23)C1)c1ccc(F)cc1C(F)(F)F (racemic),10.7,
O=C(NC1CCN(c2nnc(-c3ccccc3Cl)c3ccccc23)C1)c1ccc(F)cc1C(F)(F)F (racemic),6.51,
Cn1nccc1-c1nnc(N2CCCC(NC(=O)c3ccc(F)cc3C(F)(F)F)C2)c2ccccc12 (racemic),> 1000,
CN(C(=O)c1ccc(F)cc1C(F)(F)F)C1CCCN(c2nnc(-c3ccnn3C)c3ccccc23)C1 (racemic),> 1000,
Cn1nccc1-c1nnc(N2CCC(NC(=O)c3ccc(F)cc3C(F)(F)F)C2)c2ccccc12 (racemic),4.75,
Cn1nccc1-c1nnc(N2CC3(CN(C(=O)c4ccc(F)cc4C(F)(F)F)C3)C2)c2ccccc12,442,
Cn1nccc1Nc1nnc(N2CCC(NC(=O)c3ccc(F)cc3C(F)(F)F)C2)c2ccccc12 (racemic),> 100,
Cn1nccc1-c1nnc(N2CC(NC(=O)c3ccc(F)cc3C(F)(F)F)C2)c2ccccc12,> 1000,
O=C(NC1CCN(c2nnc(-c3ccccc3)c3ccccc23)C1)c1ccc(F)cc1C(F)(F)F (racemic),3.43,
Cc1ccc(-c2nnc(N3CC[C@H](NC(=O)c4ccc(F)cc4C(F)(F)F)C3)c3ccccc23)cc1,> 100,
Cn1cc(-c2nnc(N3CCC(NC(=O)c4ccc(F)cc4C(F)(F)F)C3)c3ccccc23)cn1 (racemic),> 100,
Cc1ccc(-c2nnc(N3CCC(N(C)C(=O)c4ccc(F)cc4C(F)(F)F)C3)c3ccccc23)cc1 (racemic),2.93,
Cc1ccc(-c2nnc(N3CCC(NC(=O)c4ccc(F)cc4C(F)(F)F)C3)c3ccccc23)cc1 (racemic),0.88,
O=C(N[C@H]1CCN(c2nnc(-c3ccc(CO)cc3)c3ccccc23)C1)c1ccc(F)cc1C(F)(F)F,> 100,
CN(C(=O)c1ccc(F)cc1C(F)(F)F)C1CCN(c2nnc(-c3ccc(CO)cc3)c3ccccc23)C1 (racemic),1.36,
O=C(N[C@@H]1CCN(c2nnc(-c3ccc(CO)cc3)c3ccccc23)C1)c1ccc(F)cc1C(F)(F)F,0.17,IC50 (Medulloblastoma cell [2]): 24.6 nM; Ratio IC50 (Mus musculus): 23; TGI (Medulloblastoma cell [3]): Active; TGI (Medulloblastoma cell [4]): Active; AUC(0-inf) [5]: 0.88 µM·h; clearance [6]: 74.7 mL/min/kg; Vd [7]: 1.47 L/kg; half-life [8]: 19.2 min; AUC(0-inf) [9]: 0.33 µM·h; Cmax [10]: 480 nM; Tmax [11]: 15 min; bioavailability [12]: 7.4%
O=C(NC1CCN(c2nnc(-c3ccc(CO)cc3)c3ccccc23)C1)c1ccc(F)cc1C(F)(F)F (racemic),0.95,
